Article PMC5218480 (PLoS ONE, 2017)

Tested on: MV-4-11 cells
Experiment: Gene expression microarray analysis (Affymetrix PrimeView) and GSEA
Format: cell-based, human
Set-up: RFU PODN (11730768_x_at) / Fold change /veh PODN (11730768_x_at) / RFU LINC00158 (11744669_a_at) / Fold change /veh LINC00158 (11744669_a_at) / RFU DUSP10 (11751237_a_at) / Fold change /veh DUSP10 (11751237_a_at) / RFU ID3 (11757404_x_at) / Fold change /veh ID3 (11757404_x_at) / RFU PLEKHG5 (11737974_s_at) / Fold change /veh PLEKHG5 (11737974_s_at) / RFU LRRC4B (11730491_at) / Fold change /veh LRRC4B (11730491_at) / RFU GIMAP4 (11747438_a_at) / Fold change /veh GIMAP4 (11747438_a_at) / RFU KRT8 (11758183_x_at) / Fold change /veh KRT8 (11758183_x_at) / RFU CNN1 (11734310_a_at) / Fold change /veh CNN1 (11734310_a_at) / RFU VPS37D (11726825_at) / Fold change /veh VPS37D (11726825_at) / RFU C10orf10 (11716522_x_at) / Fold change /veh C10orf10 (11716522_x_at) / RFU KIR2DL2 /// KIR2DL4 /// KIR2DL5A /// KIR2DL5B /// KIR2DS1 /// KIR2DS2 /// KIR2DS3 /// KIR2DS4 /// KIR3DL3 /// KIR3DL3 /// KIR3DS1 (11738374_at) / Fold change /veh KIR2DL2 /// KIR2DL4 /// KIR2DL5A /// KIR2DL5B /// KIR2DS1 /// KIR2DS2 /// KIR2DS3 /// KIR2DS4 /// KIR3DL3 /// KIR3DL3 /// KIR3DS1 (11738374_at) / RFU C1QL1 (11718748_at) / Fold change /veh C1QL1 (11718748_at) / RFU TMPRSS4 (11747572_a_at) / Fold change /veh TMPRSS4 (11747572_a_at) / RFU HAMP (11756126_x_at) / Fold change /veh HAMP (11756126_x_at) / RFU RNFT2 (11725882_a_at) / Fold change /veh RNFT2 (11725882_a_at) / RFU NR4A2 (11747474_a_at) / Fold change /veh NR4A2 (11747474_a_at) / RFU ABCC12 (11746883_a_at) / Fold change /veh ABCC12 (11746883_a_at) / RFU TMEM136 (11760407_x_at) / Fold change /veh TMEM136 (11760407_x_at) / RFU CLDN22 /// WWC2 (11732394_at) / Fold change /veh CLDN22 /// WWC2 (11732394_at) / RFU HLA-DPB1 (11760878_x_at) / Fold change /veh HLA-DPB1 (11760878_x_at) / RFU SPINT1 (11716480_a_at) / Fold change /veh SPINT1 (11716480_a_at) / RFU GAP43 (11754022_s_at) / Fold change /veh GAP43 (11754022_s_at) / RFU A4GNT (11735810_at) / Fold change /veh A4GNT (11735810_at) / RFU PRB3 (11715151_x_at) / Fold change /veh PRB3 (11715151_x_at) / RFU TUBB4B (11761932_at) / Fold change /veh TUBB4B (11761932_at) / RFU CAPN14 (11732068_a_at) / Fold change /veh CAPN14 (11732068_a_at) / RFU TMCC2 (11721928_a_at) / Fold change /veh TMCC2 (11721928_a_at) / RFU IRGQ (11745062_a_at) / Fold change /veh IRGQ (11745062_a_at) / RFU FAM174B (11720279_a_at) / Fold change /veh FAM174B (11720279_a_at) / RFU TMPRSS4 (11748680_a_at) / Fold change /veh TMPRSS4 (11748680_a_at) / RFU FAM212B (11763350_a_at) / Fold change /veh FAM212B (11763350_a_at) / RFU PLEKHG5 (11743358_a_at) / Fold change /veh PLEKHG5 (11743358_a_at) / RFU ZSCAN30 (11745921_a_at) / Fold change /veh ZSCAN30 (11745921_a_at) / RFU CMKLR1 (11741424_a_at) / Fold change /veh CMKLR1 (11741424_a_at) / RFU LOC101060620 /// MAPK8IP1 (11723275_at) / Fold change /veh LOC101060620 /// MAPK8IP1 (11723275_at) / RFU SPTSSB (11747773_x_at) / Fold change /veh SPTSSB (11747773_x_at) / RFU PRSS12 (11739890_at) / Fold change /veh PRSS12 (11739890_at) / RFU BIN1 (11741810_x_at) / Fold change /veh BIN1 (11741810_x_at) / RFU WNT11 (11732464_a_at) / Fold change /veh WNT11 (11732464_a_at) / RFU C10orf10 (11716521_a_at) / Fold change /veh C10orf10 (11716521_a_at) / RFU C5orf56 (11738089_at) / Fold change /veh C5orf56 (11738089_at) / RFU CYB561 (11721691_x_at) / Fold change /veh CYB561 (11721691_x_at) / RFU ANKRD19P (11752326_a_at) / Fold change /veh ANKRD19P (11752326_a_at) / RFU OR2T12 /// OR2T33 /// OR2T8 (11738714_s_at) / Fold change /veh OR2T12 /// OR2T33 /// OR2T8 (11738714_s_at) / RFU VCAN (11748164_a_at) / Fold change /veh VCAN (11748164_a_at) / RFU JSRP1 (11732532_at) / Fold change /veh JSRP1 (11732532_at) / RFU KRTAP10-11 (11738290_x_at) / Fold change /veh KRTAP10-11 (11738290_x_at) / RFU MYO3A (11730013_a_at) / Fold change /veh MYO3A (11730013_a_at) / RFU EBF3 (11725865_a_at) / Fold change /veh EBF3 (11725865_a_at) / RFU CAMK2N1 (11719241_x_at) / Fold change /veh CAMK2N1 (11719241_x_at) / RFU C5orf56 (11738088_a_at) / Fold change /veh C5orf56 (11738088_a_at) / RFU OLFML3 (11715873_a_at) / Fold change /veh OLFML3 (11715873_a_at) / RFU LOC100653217 /// NTM (11731650_a_at) / Fold change /veh LOC100653217 /// NTM (11731650_a_at) / RFU MAPK11 (11762145_a_at) / Fold change /veh MAPK11 (11762145_a_at) / RFU FIZ1 (11724087_x_at) / Fold change /veh FIZ1 (11724087_x_at) / RFU OASL (11726364_x_at) / Fold change /veh OASL (11726364_x_at) / RFU SOX15 (11748057_x_at) / Fold change /veh SOX15 (11748057_x_at) / RFU CD79A (11719716_a_at) / Fold change /veh CD79A (11719716_a_at) / RFU HIST1H1D (11736915_at) / Fold change /veh HIST1H1D (11736915_at) / RFU CASKIN2 (11723855_a_at) / Fold change /veh CASKIN2 (11723855_a_at) / RFU LOC730098 (11760151_x_at) / Fold change /veh LOC730098 (11760151_x_at) / RFU OR4N2 (11742367_at) / Fold change /veh OR4N2 (11742367_at) / RFU PRRT2 (11749266_a_at) / Fold change /veh PRRT2 (11749266_a_at) / RFU SNX32 (11753110_a_at) / Fold change /veh SNX32 (11753110_a_at) / RFU CDHR5 (11726645_a_at) / Fold change /veh CDHR5 (11726645_a_at) / RFU RCAN1 (11760418_a_at) / Fold change /veh RCAN1 (11760418_a_at) / RFU FAM167A (11723789_a_at) / Fold change /veh FAM167A (11723789_a_at) / RFU FAM26E (11764081_at) / Fold change /veh FAM26E (11764081_at) / RFU ISYNA1 (11749810_s_at) / Fold change /veh ISYNA1 (11749810_s_at) / RFU ACY1 (11761880_at) / Fold change /veh ACY1 (11761880_at) / RFU 11764098_at / Fold change /veh 11764098_at / RFU SAMD14 (11745864_x_at) / Fold change /veh SAMD14 (11745864_x_at) / RFU NPB (11741838_a_at) / Fold change /veh NPB (11741838_a_at) / RFU TMPRSS6 (11731388_a_at) / Fold change /veh TMPRSS6 (11731388_a_at) / RFU KRTAP10-2 (11738614_at) / Fold change /veh KRTAP10-2 (11738614_at) / RFU ARHGAP8 /// PRR5-ARHGAP8 (11727945_x_at) / Fold change /veh ARHGAP8 /// PRR5-ARHGAP8 (11727945_x_at) / RFU KRTAP5-7 /// NADSYN1 (11734609_at) / Fold change /veh KRTAP5-7 /// NADSYN1 (11734609_at) / RFU RASL12 (11751679_a_at) / Fold change /veh RASL12 (11751679_a_at) / RFU CDKN2B (11736163_a_at) / Fold change /veh CDKN2B (11736163_a_at) / RFU PRF1 (11729649_at) / Fold change /veh PRF1 (11729649_at) / RFU, ZNF638 /// ZNF638-IT1 / Fold change vs veh, ZNF638 /// ZNF638-IT1 / RFU, PANK3 / Fold change vs veh, PANK3 / RFU, SH3YL1 / Fold change vs veh, SH3YL1 / RFU, ZEB2 / Fold change vs veh, ZEB2 / RFU, NRIP1 / Fold change vs veh, NRIP1 / RFU, PTTG1IP / Fold change vs veh, PTTG1IP / RFU, CAPN2 / Fold change vs veh, CAPN2 / RFU, MED14 / Fold change vs veh, MED14 / RFU, SNORA58 / Fold change vs veh, SNORA58 / RFU, C1orf63 / Fold change vs veh, C1orf63 / RFU, LRRFIP1 / Fold change vs veh, LRRFIP1 / RFU, NDUFAF7 / Fold change vs veh, NDUFAF7 / RFU, SLC12A2 / Fold change vs veh, SLC12A2 / RFU, IBTK / Fold change vs veh, IBTK / RFU, ESF1 / Fold change vs veh, ESF1 / Fold change vs veh, TMEM50B / RFU, TAOK1 / Fold change vs veh, TAOK1 / RFU, ACBD3 / Fold change vs veh, ACBD3 / RFU, TMA16 / Fold change vs veh, TMA16 / RFU, RWDD3 / Fold change vs veh, RWDD3 / RFU, BCAT1 / Fold change vs veh, BCAT1 / RFU, EDEM3 / Fold change vs veh, EDEM3 / RFU, TMEM33 / Fold change vs veh, TMEM33 / RFU, WDR75 / Fold change vs veh, WDR75 / RFU, AHCTF1 / Fold change vs veh, AHCTF1 / RFU, TFRC / Fold change vs veh, TFRC / RFU, ZDHHC17 / Fold change vs veh, ZDHHC17 / RFU, NOM1 / Fold change vs veh, NOM1 / RFU, ARL8B / Fold change vs veh, ARL8B / RFU, ZBTB11 / Fold change vs veh, ZBTB11 / RFU, TAMM41 / Fold change vs veh, TAMM41 / RFU, KIAA1704 /// LOC100996395 / Fold change vs veh, KIAA1704 /// LOC100996395 / RFU, ING1 / Fold change vs veh, ING1 / RFU, TRMT61B / Fold change vs veh, TRMT61B / RFU, FUBP3 / Fold change vs veh, FUBP3 / RFU, TP53 / Fold change vs veh, TP53 / RFU, TNKS2 / Fold change vs veh, TNKS2 / RFU, ZFP14 / Fold change vs veh, ZFP14 / RFU, ACTR2 / Fold change vs veh, ACTR2 / RFU, PPP3R1 / Fold change vs veh, PPP3R1 / RFU, PIK3R1 / Fold change vs veh, PIK3R1 / RFU, HNRNPA1 / Fold change vs veh, HNRNPA1 / RFU, RNF170 / Fold change vs veh, RNF170 / RFU, ZNF28 / Fold change vs veh, ZNF28 / RFU, RNGTT / Fold change vs veh, RNGTT / RFU, OGT / Fold change vs veh, OGT / RFU, BRD1 / Fold change vs veh, BRD1 / RFU, MARS / Fold change vs veh, MARS / RFU, ZNF655 / Fold change vs veh, ZNF655 / RFU, FAHD1 / Fold change vs veh, FAHD1 / RFU, BDP1 / Fold change vs veh, BDP1 / RFU, LRRCC1 / Fold change vs veh, LRRCC1 / RFU, ARID1A / Fold change vs veh, ARID1A / RFU, ZNF146 / Fold change vs veh, ZNF146 / RFU, ZNF330 / Fold change vs veh, ZNF330 / RFU, GPN3 / Fold change vs veh, GPN3 / RFU, C9orf123 / Fold change vs veh, C9orf123 / RFU, N4BP2L2 / Fold change vs veh, N4BP2L2 / RFU, ARFIP1 / Fold change vs veh, ARFIP1 / RFU, FAM179B / Fold change vs veh, FAM179B / RFU, BCL10 / Fold change vs veh, BCL10 / RFU, UHRF1BP1L / Fold change vs veh, UHRF1BP1L / RFU, BET1 / Fold change vs veh, BET1 / RFU, CNOT2 / Fold change vs veh, CNOT2 / RFU, ZNF268 / Fold change vs veh, ZNF268 / Fold change vs veh, ZNF507 / RFU, DGCR2 / Fold change vs veh, DGCR2 / RFU, WDSUB1 / Fold change vs veh, WDSUB1 / Fold change vs veh, HSP90B1 /// MIR3652 / RFU, ADSS / Fold change vs veh, ADSS / RFU, GK / Fold change vs veh, GK / RFU, ZNF148 / Fold change vs veh, ZNF148 / RFU, TAF9 / Fold change vs veh, TAF9 / RFU, SLC1A5 / Fold change vs veh, SLC1A5 / RFU, SLMO2 / Fold change vs veh, SLMO2 / RFU, ABCC4 / Fold change vs veh, ABCC4 / RFU, LOC101060439 /// RAP1B / Fold change vs veh, LOC101060439 /// RAP1B / RFU, RFX7 / Fold change vs veh, RFX7 / RFU, GTPBP10 / Fold change vs veh, GTPBP10 / RFU, CNEP1R1 / Fold change vs veh, CNEP1R1 / RFU, BIVM-ERCC5 /// ERCC5 / Fold change vs veh, BIVM-ERCC5 /// ERCC5 / RFU, ILF3 / Fold change vs veh, ILF3 / RFU 11762660_at / Fold change /veh 11762660_at / RFU VCAN (11757783_s_at) / Fold change /veh VCAN (11757783_s_at) / RFU DDX43 (11728927_at) / Fold change /veh DDX43 (11728927_at) / RFU KRT8 (11758188_x_at) / Fold change /veh KRT8 (11758188_x_at) / RFU NKD1 (11759106_at) / Fold change /veh NKD1 (11759106_at) / RFU SRD5A1 (11742802_a_at) / Fold change /veh SRD5A1 (11742802_a_at) / RFU TPSAB1 /// TPSB2 (11721975_s_at) / Fold change /veh TPSAB1 /// TPSB2 (11721975_s_at) / RFU GSTM3 (11746129_a_at) / Fold change /veh GSTM3 (11746129_a_at) / RFU IL23R (11737362_x_at) / Fold change /veh IL23R (11737362_x_at) / RFU TMEM51 (11727254_a_at) / Fold change /veh TMEM51 (11727254_a_at) / RFU PIWIL2 (11732686_x_at) / Fold change /veh PIWIL2 (11732686_x_at) / RFU ORM1 (11744905_x_at) / Fold change /veh ORM1 (11744905_x_at) / RFU CCDC152 (11743942_at) / Fold change /veh CCDC152 (11743942_at) / RFU ECM1 (11717891_a_at) / Fold change /veh ECM1 (11717891_a_at) / RFU IL23R (11748794_a_at) / Fold change /veh IL23R (11748794_a_at) / RFU TNFAIP8L3 (11732012_x_at) / Fold change /veh TNFAIP8L3 (11732012_x_at) / RFU MBOAT4 (11741988_at) / Fold change /veh MBOAT4 (11741988_at) / RFU 11764193_at / Fold change /veh 11764193_at / RFU TMEM53 (11763286_at) / Fold change /veh TMEM53 (11763286_at) / RFU MAGEB2 (11727129_at) / Fold change /veh MAGEB2 (11727129_at) / RFU TMEM200A (11744735_a_at) / Fold change /veh TMEM200A (11744735_a_at) / RFU CCDC152 (11751479_a_at) / Fold change /veh CCDC152 (11751479_a_at) / RFU FAM211A (11726209_a_at) / Fold change /veh FAM211A (11726209_a_at) / RFU RGS16 (11746705_a_at) / Fold change /veh RGS16 (11746705_a_at) / RFU VCAN (11755009_s_at) / Fold change /veh VCAN (11755009_s_at) / RFU RHOB (11743442_s_at) / Fold change /veh RHOB (11743442_s_at) / RFU RGS16 (11720943_a_at) / Fold change /veh RGS16 (11720943_a_at) / RFU RGS16 (11720944_at) / Fold change /veh RGS16 (11720944_at) / RFU, VPS4B / Fold change vs veh, VPS4B / RFU, CREB1 / Fold change vs veh, CREB1 / RFU, DNAJC13 / Fold change vs veh, DNAJC13 / RFU, GNAQ / Fold change vs veh, GNAQ / RFU, CDK5R1 / Fold change vs veh, CDK5R1 / RFU, ZRANB3 / Fold change vs veh, ZRANB3 / RFU, CUL4A / Fold change vs veh, CUL4A / RFU, CCNY / Fold change vs veh, CCNY / RFU, UFL1 / Fold change vs veh, UFL1 / RFU, COG3 / Fold change vs veh, COG3 / RFU, DIAPH2 / Fold change vs veh, DIAPH2 / RFU, SKA2 / Fold change vs veh, SKA2 / RFU, AFF3 / Fold change vs veh, AFF3 / RFU, LMF1 / Fold change vs veh, LMF1 / RFU, IPO11 / Fold change vs veh, IPO11 / RFU, DFFB / Fold change vs veh, DFFB / RFU, FOXP1 / Fold change vs veh, FOXP1 / RFU, CARD8 / Fold change vs veh, CARD8 / RFU, STRN3 / Fold change vs veh, STRN3 / RFU, ADK / Fold change vs veh, ADK / RFU, RASSF2 / Fold change vs veh, RASSF2 / RFU, WIPF1 / Fold change vs veh, WIPF1 / RFU, LARP1B / Fold change vs veh, LARP1B / RFU, RASA1 / Fold change vs veh, RASA1 / RFU, RB1 / Fold change vs veh, RB1 / RFU, PPFIA1 / Fold change vs veh, PPFIA1 / RFU, MAT2A / Fold change vs veh, MAT2A / RFU, CCT5 / Fold change vs veh, CCT5 / RFU, WDR92 / Fold change vs veh, WDR92 / RFU, CUX1 / Fold change vs veh, CUX1 / RFU, TTC7A / Fold change vs veh, TTC7A / RFU, TMEM135 / Fold change vs veh, TMEM135 / RFU, DEPTOR / Fold change vs veh, DEPTOR / RFU, CPM / Fold change vs veh, CPM / RFU, DNAJB6 / Fold change vs veh, DNAJB6 / RFU, CACNA2D3 / Fold change vs veh, CACNA2D3 / RFU, DTX4 / Fold change vs veh, DTX4 / RFU, TFCP2 / Fold change vs veh, TFCP2 / RFU, GMCL1 /// GMCL1P1 / Fold change vs veh, GMCL1 /// GMCL1P1 / RFU, AEBP2 / Fold change vs veh, AEBP2 / RFU, SNHG1 /// SNORD22 /// SNORD25 /// SNORD26 /// SNORD27 /// SNORD28 /// SNORD29 /// SNORD31 / Fold change vs veh, SNHG1 /// SNORD22 /// SNORD25 /// SNORD26 /// SNORD27 /// SNORD28 /// SNORD29 /// SNORD31 / Fold change (Aza/veh), C12orf56 (ProbeSet 11735607_a_at) / Fold change (ACY-1035/veh), C12orf56 (ProbeSet 11735607_a_at) / Fold change (Aza/veh), FGFR1OP (ProbeSet 11751329_s_at) / Fold change (ACY-1035/veh), FGFR1OP (ProbeSet 11751329_s_at) / Fold change (Aza/veh), VPS36 (ProbeSet 11739960_a_at) / Fold change (ACY-1035/veh), VPS36 (ProbeSet 11739960_a_at) / RFU SYPL1 (11715823_x_at) / Fold change /veh SYPL1 (11715823_x_at) / RFU IGFBP7 (11715501_s_at) / Fold change /veh IGFBP7 (11715501_s_at) / RFU REEP3 (11722064_at) / Fold change /veh REEP3 (11722064_at) / RFU IGLL1 (11728026_x_at) / Fold change /veh IGLL1 (11728026_x_at): dose or concentration left out as unconfirmed
Settings: ProbeSet 11753055_s_at; LIST B

## Nc1ncn([C@@H]2O[C@H](CO)[C@@H](O)[C@H]2O)c(=O)n1 [azacitidine]
  RFU, LOC101060439 /// RAP1B: 558.59 RFU
